The values below come from publication PMC12172326 (Journal of Biomedical Science, 2025).

One data set concerns p-glycoprotein. Also noted: method as in PMID 21825263. Particulars: cited from earlier work.
The conditions of data set [1]: cited from earlier work.
A further data set relates to Aiolos. In words: Aiolos degradation, Western blot in MM.1S cells. The data set is classed as cell-based, human. Particulars: 4 h, 0.1 to 10 μM, Aiolos/GAPDH, read-out: IC50 to lower Aiolos protein expression. On the procedure: (§1) This cell line was obtained from the Korean Cell Line Bank (catalog no. 30105; Seoul, Korea), grown in DMEM (supplemented with 10% FBS, penicillin 100 U/mL and streptomycin 100 μg/mL, and maintained at 37 °C and 5% CO2). […] These were grown in RPMI media supplemented with 10% FBS, penicillin 100 U/mL, and streptomycin […], and maintained at 37 °C and 5% CO2. MM.1S cells were treated with drug (0.1 to 10 μM) for 4 h, and their cell lysates were prepared for Western blot analysis, as described previously.
(§2) For Western blot analysis, total proteins were extracted using RIPA buffer (Thermo Fisher Scientific, Waltham, MA) containing Halt Protease Inhibitor Cocktail (Thermo Fisher Scientific). Thereafter, proteins were separated by gel electrophoresis and then transferred to polyvinylidene difluoride (PVDF) membranes (Thermo Fisher Scientific), as detailed previously. The following primary antibodies were used: (i) anti-SALL4 antibody (catalog no. ab29112; 1:1000; Abcam, UK); (ii) anti-Aiolos antibody (catalog no. 15103; 1:1000; Cell Signaling Technology, Danvers, MA, USA); and (iii) anti-GAPDH antibody (catalog no. ab8245; 1:5000; Abcam, Cambridge, UK). […] Antigen–antibody complexes were detected using enhanced chemiluminescence (Thermo Fisher Scientific, iBright CL1500).
In general terms: A western blot detects proteins with antibodies after separation by electrophoresis.

Another data set concerns SALL4. Kind of data set: SALL4 degradation, Western blot in Tera-1 cells. Particulars: 4 h, 0.1 to 10 μM, SALL4/GAPDH, read-out: IC50 to lower SALL4 protein expression. The data set is classed as cell-based, human. On the procedure: as §1, §2
Data set [2] is described as follows: ex vivo stability in mouse plasma. The format is in vitro ADME. Particulars: 100 μg/ml, room temperature, 0-180 min. On the procedure:
(§3) An ex vivo evaluation of drug stability was conducted in mouse and human plasma samples (WuXi AppTec, Shanghai, China). […] Samples were, thereafter, incubated at room temperature for 0, 15, 30, 60, 120, and 180 min before immediate drug extraction. […] Extraction was performed by adding ethyl acetate containing the internal standard (donepezil—known to undergo first-pass hepatic metabolism) to the spiked sample (100 μL), vortexed for 1 min, and centrifuged at 13,000 rpm, 4 °C for 10 min. The supernatant was used for LC–MS/MS analysis.
(§4) LC–MS/MS analysis was performed with a Vanquish Flex UHPLC (Thermo Scientific) and a Orbitrap Exploris 240 mass spectrometer (Thermo Scientific). Samples were separated on a C18 UHPLC column (100 mm × 2.1 mm, 3 μm; Thermo Scientific). The mobile phase A for LC separation was 0.1% formic acid and the mobile phase B was 0.1% formic acid in methanol. The chromatography gradient was designed for a linear increase from 5% B in 1 min, 5% B to 95% B in 8 min, 95% B in 3 min, and 5% B in 3 min. The flow rate was maintained at 0.3 mL/min. Mass spectra were acquired using the data-dependent Top 4 MS2 (ddMS2) method with a mass scan (100–1000 m/z) and 120,000 MS resolution.

Data set [3] can be described thus: ex vivo stability in human plasma. Particulars: 100 μg/ml, room temperature, 0-180 min. The format is in vitro ADME. The method, then: as §3, §4

Structures are written as SMILES.

Turning to `Nc1cccc2c1CN(C1CCC(=O)NC1=O)C2=O` (stereo not drawn) [Lenalidomide], the “substrate for the efflux transporter p-glycoprotein” value in the data set on p-glycoprotein is “substrate”. Also, the CSF/plasma ratio in data set [1] was 0.11.

For orientation: IC50 means the midpoint of a concentration-inhibition curve. Regarding `Nc1cccc2c1C(=O)N(C1CCC(=O)NC1=O)C2=O` (stereo not drawn) [Pom, Pomalidomide], the values for the IC50 in the data set on Aiolos and with SALL4 were 0.06 µM and 0.04 µM, respectively.

For the molecule `Nc1cccc2c1C(=S)N(C1CCC(=S)NC1=O)C2=O` (stereo not drawn) [3,6′-DTP, 3,6′-dithiopomalidomide, reference compound], in data set [2], the “ex vivo stability in mouse plasma” value is “rapidly disappears”. For the same molecule, the “ex vivo stability in human plasma” value in data set [3] is given as “rapidly disappears”.
